According to US9365563B2, “TRPV1 antagonists including dihydroxy substituent and uses thereof” (Purdue Pharma L.P., priority 2007, dated 2016):
Like-named read-outs stand apart in the source and are kept apart here. Blank lines part the entries; values can stand above or below the molecule they belong to.

What was measured:
[1] = test system: FCA-induced inflammation of the rat hind paw; experiment: FCA model of inflammatory pain (thermal hyperalgesia, plantar test); format: in vivo; details: for ED50: read-out: ED50 for reversal of FCA-induced thermal hyperalgesia
Description: Each experiment uses rats weighing between 200-260 g at the start of the experiment. The rats are group-housed and have free access to food and water at all times, except prior to oral administration of a compound of formula I when food is removed for 16 hours before dosing. A control group acts as a comparison to rats treated with a compound of formula I. The control group is administered the carrier for the compound of formula I. The volume of carrier administered to the control group is the same as the volume of carrier and compound of formula I administered to the test group.
To assess the actions of the compounds of formula I on the treatment or prevention of inflammatory pain the Freund's complete adjuvant (“FCA”) model of inflammatory pain is used. FCA-induced inflammation of the rat hind paw is associated with the development of persistent inflammatory mechanical and thermal hyperalgesia and provides reliable prediction of the anti-hyperalgesic action of clinically useful analgesic drugs (L. Bartho et al., “Involvement of Capsaicin-sensitive Neurones in Hyperalgesia and Enhanced Opioid Antinociception in Inflammation,” Naunyn-Schmiedeberg's Archives of Pharmacol. 342:666-670 (1990)). The left hind paw of each animal is administered a 50 μL intraplantar injection of 50% FCA. 24 hour post injection, the animal is assessed for response to noxious mechanical stimuli by determining the PWT, or to noxious thermal stimuli by determining the PWL, as described below. […] Responses to noxious mechanical or thermal stimuli are then determined 1, 3, 5 and 24 hours post administration. […]
The plantar test can be used to assess thermal hyperalgesia. For this test, hind paw withdrawal latencies (PWL) to a noxious thermal stimulus are determined using a plantar test apparatus (commercially available from Ugo Basile of Italy) following the technique described by K. Hargreaves et al., “A New and Sensitive Method for Measuring Thermal Nociception in Cutaneous Hyperalgesia,” Pain 32(1):77-88 (1988). […] Three latencies are determined at each time point and averaged. […]

Aqueous solubility = format: physicochemical
human TRPV1 [2] = biological target: T1, human TRPV1 (Homo sapiens (Human), UniProt Q8NER1); experiment: pH-based assay, Protocol 2 (hpH-CHO); format: cell-based; details: TRPV1/CHO cells, pH 5.0-5.1; mean ± SEM; read-out: TRPV1 IC50 Potency Human pH CHO (hpH-CHO)
T1 sequence (Q8NER1 whole entry): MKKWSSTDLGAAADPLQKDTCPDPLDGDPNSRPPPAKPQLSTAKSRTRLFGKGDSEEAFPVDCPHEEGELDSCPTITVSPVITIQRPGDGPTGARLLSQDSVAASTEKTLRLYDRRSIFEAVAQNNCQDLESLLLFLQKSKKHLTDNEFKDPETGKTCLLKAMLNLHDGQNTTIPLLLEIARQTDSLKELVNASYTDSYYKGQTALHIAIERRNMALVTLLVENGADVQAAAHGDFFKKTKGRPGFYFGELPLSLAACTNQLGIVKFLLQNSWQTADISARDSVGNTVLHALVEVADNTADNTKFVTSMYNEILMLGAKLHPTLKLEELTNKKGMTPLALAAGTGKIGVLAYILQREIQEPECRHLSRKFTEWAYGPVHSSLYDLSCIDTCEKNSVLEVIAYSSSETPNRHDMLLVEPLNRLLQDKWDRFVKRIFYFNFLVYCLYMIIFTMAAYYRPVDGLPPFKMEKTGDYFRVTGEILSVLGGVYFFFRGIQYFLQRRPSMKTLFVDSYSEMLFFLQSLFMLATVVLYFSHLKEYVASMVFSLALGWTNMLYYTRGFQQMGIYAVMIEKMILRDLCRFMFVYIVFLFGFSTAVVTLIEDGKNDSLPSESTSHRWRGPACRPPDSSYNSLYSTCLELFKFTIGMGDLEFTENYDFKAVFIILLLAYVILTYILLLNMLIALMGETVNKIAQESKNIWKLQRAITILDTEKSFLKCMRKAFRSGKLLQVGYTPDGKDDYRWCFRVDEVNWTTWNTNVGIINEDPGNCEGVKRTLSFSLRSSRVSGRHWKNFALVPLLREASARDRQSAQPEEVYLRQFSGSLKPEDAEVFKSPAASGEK
Description: For Protocol 2, a Chinese Hamster Ovary cell line (CHO) that has been engineered to constitutively express human recombinant TRPV1 was used (TRPV1/CHO cells). The TRPV1/CHO cell line was generated as described below.
The resulting PCR products were purified from agarose gels using Gel Band Purification Kit (GE Healthcare Bioscience) and were subcloned into pCR-Blunt vector (Invitrogen). The cloned cDNA was fully sequenced using a fluorescent dye-terminator reagent (BigDye Terminator ver3.1 Cycle Sequencing Kit, Applied Biosystems) and ABI Prism 3100 genetic analyzer (Applied Biosystems). The pCR-Blunt vector containing the hTRPV1 cDNA was subjected to restriction digestion with EcoR1. […] The sequence of the cDNA encoding TRPV1 is available at GenBank accession number AJ277028.
CHO-K1 cells were maintained in growth medium consisting of α-MEM, 10% FBS (Hyclone), and 100 IU/mL of penicillin-100 μg/mL of streptomycin mixed solution (Nacalai Tesque, Japan) at 37° C. in an environment of humidified 95% air and 5% CO2. […] 24 hr after transfection, neomycin-resistant cells were selected using 1 mg/mL G418 (Nacalai Tesque). […]
(5) The Fura-2 fluorescent intensity was monitored at a wavelength of 340 nm and at 380 nm, respectively, at a rate of 0.5 Hz for a total of 240 seconds.

[3] = Bioavailability following oral administration; format: in vivo
[4] = Plasma concentration after administration to an animal; format: in vivo
human TRPV1 [5] = biological target: T1, human TRPV1; experiment: Capsaicin-based assay, Protocol 2 (hCAP-CHO); format: cell-based; details: TRPV1/CHO cells, 100 nM capsaicin; mean ± SEM; read-out: TRPV1 IC50 Potency Human Capsaicin CHO (hCAP-CHO)
Description: The TRPV1/CHO cell line was generated as described below. […] The resulting PCR products were purified from agarose gels using Gel Band Purification Kit (GE Healthcare Bioscience) and were subcloned into pCR-Blunt vector (Invitrogen). The cloned cDNA was fully sequenced using a fluorescent dye-terminator reagent (BigDye Terminator ver3.1 Cycle Sequencing Kit, Applied Biosystems) and ABI Prism 3100 genetic analyzer (Applied Biosystems). The pCR-Blunt vector containing the hTRPV1 cDNA was subjected to restriction digestion with EcoR1. The restriction fragment was subcloned into expression vector pcDNA3.1(-) (Invitrogen) and named pcDNA3.1(-)-hVR1 plasmid. The sequence of the cDNA encoding TRPV1 is available at GenBank accession number AJ277028. […] The cells were transfected with the pcDNA3.1(-)-hVR1 plasmid using FuGENE6 (Roche) according to the manufacturer's protocol. 24 hr after transfection, neomycin-resistant cells were selected using 1 mg/mL G418 (Nacalai Tesque). […] The cells expressing hTRPV1 were cultured in the growth medium supplemented with 1 mg/mL G418. […] Subsequently, the cells were loaded by incubation in 0.1 mL of wash buffer containing Fluo-4 at 3 μM final concentration. After 1 hour, the cells were washed twice with 0.2 mL wash buffer and resuspended in 0.1 mL wash buffer. The plates were then transferred to a Fluorescence Imaging Plate Reader (Molecular Devices). Fluorescence intensity was monitored for 15 seconds to establish a baseline. […] The final concentration of the compound was adjusted to range from 100 μM to 1.5625 μM. […] Data were collected over the entire time course and analyzed using Excel and the curve-fitting formula GraphPad Prism.

- bioavailability ([3]; in vivo, read-out: bioavailable following oral administration): 70.7%
Structure (SMILES): O=C(Nc1ccc(C(F)(F)F)cn1)N1CCC(F)(c2ncc([C@H](O)CO)cc2Cl)CC1 [Compound G1]

- bioavailable following oral administration [3]: 68.9%
- time to maximum plasma concentration after administration ([4]; animal plasma): 1.85 h
- maximum plasma concentration relative to the maximum for compound 200 ([4]; animal plasma, for a given dose): 5.3 times
- plasma concentration up to 24 h compared with compound 200 ([4]; up to 24 h): consistently greater
Structure (SMILES): CC(O)(CO)c1cnc(C2=CCN(C(=O)Nc3ccc(C(F)(F)F)cc3)CC2)c(Cl)c1 (stereo not shown) [Compound R6]

Second part, the molecule before the results:

Structure (SMILES): O=C(Nc1ccc(C(F)(F)F)c(Cl)c1)N1CC=C(c2ncc([C@H](O)CO)cc2Cl)CC1 [Compound D2, (S)-3-Chloro-5-(1,2-dihydroxy-ethyl)-3′,6′-dihydro-2′H-[2,4]bipyridinyl-1′-carboxylic acid (3-chloro-4-trifluoromethyl-phenyl)amide]
- ED50 ([1]; 3 hours after administration): 0.95 mg/kg
- maximum % reversal of FCA-induced thermal hyperalgesia ([1]; 5 hours after administration): 78.7%
- ED50 ([1]; 5 hours after administration): 1.63 mg/kg

Structure (SMILES): N#CCc1cnc(C2=CCN(C(=O)Nc3ccc(C(F)(F)F)cc3)CC2)c(Cl)c1 [Compound E6, 4-(3-chloro-5-(cyanomethyl)pyridin-2-yl)-N-(4-(trifluoromethyl)phenyl)-5,6-dihydropyridine-1(2H)-carboxamide]
- aqueous solubility at pH 1.2 (Aqueous solubility; pH 1.2): 27.2 μM
- aqueous solubility at pH 6.8 (Aqueous solubility; pH 6.8): 9.0 μM
- IC50 (human TRPV1 [2]): 164 nM

Structure (SMILES): O=C(Nc1ccc(OC(F)(F)F)c(Cl)c1)N1CC=C(c2ncc([C@H](O)CO)cc2Cl)CC1 [Compound Y1, (S)-3-Chloro-5-(1,2-dihydroxy-ethyl)-3′,6′-dihydro-2′H-[2,4]bipyridinyl-1′-carboxylic acid (3-chloro-4-trifluoromethoxy-phenyl)amide]
- IC50 (human TRPV1 [5]): 74.7 ± 18.4 nM
- IC50 (human TRPV1 [2]): 13.5 ± 1.2 nM
